Source: ChEMBL document CHEMBL4422655, “Osthenol, a prenylated coumarin, as a monoamine oxidase A inhibitor with high selectivity” (Bioorg Med Chem Lett, 2019)

Experiments:
[1] = target: T1, Amine oxidase [flavin-containing] A (Mus musculus, UniProt Q64133); experiment: Inhibition of MAO-A in mouse brain mitochondrial fraction using kynuramine as substrate after 30 mins by fluorometric analysis
T1 sequence (Q64133 whole entry): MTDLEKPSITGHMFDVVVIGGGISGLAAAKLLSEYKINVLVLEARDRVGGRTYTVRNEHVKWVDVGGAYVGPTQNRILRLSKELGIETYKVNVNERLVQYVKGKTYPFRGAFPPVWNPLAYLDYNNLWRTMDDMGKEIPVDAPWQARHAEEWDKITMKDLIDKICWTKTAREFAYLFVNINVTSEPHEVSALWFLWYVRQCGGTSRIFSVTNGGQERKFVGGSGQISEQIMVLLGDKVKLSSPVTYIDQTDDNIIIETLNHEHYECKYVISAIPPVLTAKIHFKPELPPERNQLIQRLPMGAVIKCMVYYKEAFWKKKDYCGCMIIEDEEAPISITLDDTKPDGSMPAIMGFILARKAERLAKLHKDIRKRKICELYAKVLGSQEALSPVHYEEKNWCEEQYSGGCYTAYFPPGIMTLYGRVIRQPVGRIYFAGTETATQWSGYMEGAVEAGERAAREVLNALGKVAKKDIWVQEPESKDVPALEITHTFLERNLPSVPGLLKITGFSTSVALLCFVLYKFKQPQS

[2] = target: T2, Amine oxidase [flavin-containing] A (Homo sapiens, UniProt P21397); experiment: Inhibition of human recombinant MAO-A expressed in baculovirus infected BTI insect cells using kynuramine as substrate assessed as residual activity at 10 uM after 20 mins by spectrophotometric analysis relative to control; details: read-out: Activity
T2 sequence (P21397 whole entry): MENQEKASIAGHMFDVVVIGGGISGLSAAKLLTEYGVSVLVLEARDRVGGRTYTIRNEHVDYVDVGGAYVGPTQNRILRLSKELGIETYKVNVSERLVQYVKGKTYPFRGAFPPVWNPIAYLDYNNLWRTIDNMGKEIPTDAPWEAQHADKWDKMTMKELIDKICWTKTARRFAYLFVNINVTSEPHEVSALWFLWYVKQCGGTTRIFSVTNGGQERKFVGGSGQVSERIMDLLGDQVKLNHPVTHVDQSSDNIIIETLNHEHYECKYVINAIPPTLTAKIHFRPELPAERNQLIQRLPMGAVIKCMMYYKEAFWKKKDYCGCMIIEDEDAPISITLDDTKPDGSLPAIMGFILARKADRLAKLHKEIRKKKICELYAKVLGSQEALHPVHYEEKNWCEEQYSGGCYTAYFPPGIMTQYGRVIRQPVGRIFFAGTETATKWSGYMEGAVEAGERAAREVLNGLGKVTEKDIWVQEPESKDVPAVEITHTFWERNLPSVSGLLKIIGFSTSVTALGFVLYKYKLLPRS

[3] = target: T3, Amine oxidase [flavin-containing] B (Homo sapiens, UniProt P27338); experiment: Inhibition of human recombinant MAO-B expressed in baculovirus infected BTI insect cells using benzylamine as substrate assessed as residual activity at 10 uM after 30 mins by spectrophotometric analysis relative to control; details: 0.5 h, read-out: Activity
T3 sequence (P27338 whole entry): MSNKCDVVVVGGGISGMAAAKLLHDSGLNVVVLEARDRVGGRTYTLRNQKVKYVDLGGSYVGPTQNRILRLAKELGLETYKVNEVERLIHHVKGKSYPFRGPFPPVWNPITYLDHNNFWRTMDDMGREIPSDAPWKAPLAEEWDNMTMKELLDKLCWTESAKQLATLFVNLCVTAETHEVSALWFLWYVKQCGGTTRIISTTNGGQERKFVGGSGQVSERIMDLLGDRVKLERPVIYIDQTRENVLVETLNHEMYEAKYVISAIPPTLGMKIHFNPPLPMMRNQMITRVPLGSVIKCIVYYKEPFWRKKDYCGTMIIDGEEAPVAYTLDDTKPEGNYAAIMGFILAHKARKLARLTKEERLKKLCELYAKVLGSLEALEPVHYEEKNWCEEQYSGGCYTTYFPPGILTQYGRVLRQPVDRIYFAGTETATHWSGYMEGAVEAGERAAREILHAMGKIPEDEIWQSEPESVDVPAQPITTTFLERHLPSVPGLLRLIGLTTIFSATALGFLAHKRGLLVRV

[4] = target: T3, Amine oxidase [flavin-containing] B; experiment: biochemical; format: cell-based
Acetylcholinesterase = Acetylcholinesterase (Electrophorus electricus, UniProt O42275); experiment: Inhibition of electric eel AChE using acetylthiocholine iodide as substrate preincubated for 15 mins followed by substrate addition by Ellman's method
Chain of Acetylcholinesterase (O42275 whole entry): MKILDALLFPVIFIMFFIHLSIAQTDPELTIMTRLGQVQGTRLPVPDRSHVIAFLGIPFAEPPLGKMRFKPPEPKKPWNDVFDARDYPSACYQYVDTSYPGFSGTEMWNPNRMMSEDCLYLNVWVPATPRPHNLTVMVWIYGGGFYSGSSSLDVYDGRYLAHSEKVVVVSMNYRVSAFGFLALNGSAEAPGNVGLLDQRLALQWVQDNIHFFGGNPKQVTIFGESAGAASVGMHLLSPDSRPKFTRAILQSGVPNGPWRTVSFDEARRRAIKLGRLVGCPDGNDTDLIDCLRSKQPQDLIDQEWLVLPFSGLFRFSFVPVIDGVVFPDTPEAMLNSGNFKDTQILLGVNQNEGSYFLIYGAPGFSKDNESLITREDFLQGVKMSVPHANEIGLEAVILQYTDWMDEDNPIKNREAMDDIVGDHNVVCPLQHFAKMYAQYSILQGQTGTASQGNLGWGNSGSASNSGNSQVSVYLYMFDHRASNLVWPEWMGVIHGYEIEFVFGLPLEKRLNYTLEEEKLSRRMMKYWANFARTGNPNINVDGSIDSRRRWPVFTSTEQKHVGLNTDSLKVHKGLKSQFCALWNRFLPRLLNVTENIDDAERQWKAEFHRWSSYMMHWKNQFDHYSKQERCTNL

Homo sapiens [5] = organism: Homo sapiens; experiment: Selectivity index, ratio of IC50 for human recombinant MAO-B expressed in baculovirus infected BTI insect cells to IC50 for human recombinant MAO-A expressed in baculovirus infected BTI insect cells
[6] = target: T4, Amine oxidase [flavin-containing] A (Rattus norvegicus, UniProt P21396); experiment: Inhibition of MAO-A in Sprague-Dawley rat brain mitochondrial fraction after 10 mins in presence of [14C]5-hydroxytryptamine by liquid scintillation analysis
T4 sequence (P21396 whole entry): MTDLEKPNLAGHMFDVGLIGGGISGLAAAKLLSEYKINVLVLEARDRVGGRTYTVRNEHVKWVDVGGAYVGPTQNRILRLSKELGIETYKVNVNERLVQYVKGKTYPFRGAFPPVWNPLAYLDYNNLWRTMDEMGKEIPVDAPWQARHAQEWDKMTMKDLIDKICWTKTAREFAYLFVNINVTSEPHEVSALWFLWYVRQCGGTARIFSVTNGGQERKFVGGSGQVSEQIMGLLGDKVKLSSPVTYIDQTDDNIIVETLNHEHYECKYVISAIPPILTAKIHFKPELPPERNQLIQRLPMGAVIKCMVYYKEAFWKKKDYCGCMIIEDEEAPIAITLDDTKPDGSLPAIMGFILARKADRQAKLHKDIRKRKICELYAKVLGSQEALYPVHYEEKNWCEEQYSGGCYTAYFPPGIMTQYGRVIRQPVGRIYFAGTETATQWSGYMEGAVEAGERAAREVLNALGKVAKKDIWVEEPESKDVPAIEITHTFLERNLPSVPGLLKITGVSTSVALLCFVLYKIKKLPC

[7] = target: T2, Amine oxidase [flavin-containing] A; experiment: biochemical
[8] = target: T2, Amine oxidase [flavin-containing] A; experiment: biochemical; remark: listed apart in the source
[9] = target: T2, Amine oxidase [flavin-containing] A; experiment: Irreversible inhibition of human recombinant MAO-A expressed in baculovirus infected BTI insect cells assessed as residual activity at 0.01 uM incubated for 30 mins using kynuramine as substrate by spectrophotometric analysis relative to control; details: 0.5 h, read-out: Activity
[10] = target: T2, Amine oxidase [flavin-containing] A; experiment: Irreversible inhibition of human recombinant MAO-A expressed in baculovirus infected BTI insect cells assessed as residual activity at 0.01 uM incubated for 30 mins followed by dialysis using kynuramine as substrate by spectrophotometric analysis relative to control; details: 0.5 h, read-out: Activity
[11] = target: T2, Amine oxidase [flavin-containing] A; experiment: Inhibition of human recombinant MAO-A expressed in baculovirus infected BTI-TN-5B1-4 insect cells using p-tyramine as substrate after 15 mins by resorufin dye-based spectrometric analysis
[12] = target: T2, Amine oxidase [flavin-containing] A; experiment: Reversible inhibition of human recombinant MAO-A expressed in baculovirus infected BTI insect cells assessed as residual activity at 1.5 uM incubated for 30 mins using kynuramine as substrate by spectrophotometric analysis relative to control; details: 0.5 h, read-out: Activity
[13] = target: T2, Amine oxidase [flavin-containing] A; experiment: Reversible inhibition of human recombinant MAO-A expressed in baculovirus infected BTI insect cells assessed as residual activity at 1.5 uM incubated for 30 mins followed by dialysis using kynuramine as substrate by spectrophotometric analysis relative to control; details: 0.5 h, read-out: Activity
[14] = target: T2, Amine oxidase [flavin-containing] A; experiment: Inhibition of human MAO-A using kynuramine as substrate after 30 mins by spectrophotometric analysis
Homo sapiens [15] = organism: Homo sapiens; experiment: Selectivity index, ratio of IC50 for human recombinant MAO-B to IC50 for human recombinant MAO-A
[16] = target: T2, Amine oxidase [flavin-containing] A; experiment: Reversible inhibition of human recombinant MAO-A expressed in baculovirus infected BTI insect cells assessed as residual activity at 2 uM incubated for 30 mins using kynuramine as substrate by spectrophotometric analysis relative to control; details: 0.5 h, read-out: Activity
[17] = target: T2, Amine oxidase [flavin-containing] A; experiment: Reversible inhibition of human recombinant MAO-A expressed in baculovirus infected BTI insect cells assessed as residual activity at 2 uM incubated for 30 mins followed by dialysis using kynuramine as substrate by spectrophotometric analysis relative to control; details: 0.5 h, read-out: Activity

Row | Structure (SMILES) | activity at 10 µM [2] | activity at 10 µM [3] | IC50 [4] | IC50 (Acetylcholinesterase) | Ratio IC50 (Homo sapiens [5]) | IC50 [7] | other results
1 | C=C(C)C(O)CC/C(C)=C/COc1ccc2ccc(=O)oc2c1 (stereo not drawn) |  |  |  |  |  |  | IC50 [1]: 1.3 µM
2 | O=c1ccc2ccc3occc3c2o1 [ANGELICIN] | 12% | 27.2% | 2.73 µM | 25.4 µM | 3.1 | 0.88 µM | IC50 [6]: 9 µM; Ki [8]: 0.46 µM
3 | O=c1ccc2c(ccc3ccoc32)o1 [BAKUCHICIN] | 18.6% | 37.8% | 5.44 µM | 35.7 µM | 3.1 | 1.78 µM | 
4 | C#CCN(C)CCCOc1ccc(Cl)cc1Cl [CLORGILINE] |  |  |  |  |  |  | activity at 0.01 µM [9]: 20.4%; activity at 0.01 µM [10]: 23.3%
5 | Oc1ccc(/C=C/c2cc(O)cc3c2[C@@H](c2cc(O)cc(O)c2)[C@H](c2ccc(O)cc2)O3)cc1 [EPSILON-VINIFERIN] |  |  |  |  |  |  | IC50 [11]: 19.6 µM
6 | CC(C)=CCOc1c2ccoc2cc2oc(=O)ccc12 [ISOIMPERATORIN] | 76.2% | 78.3% | > 60 µM | 25.6 µM |  | > 20 µM | 
7 | COc1ccc(-c2oc3cc(O)cc(O)c3c(=O)c2O)cc1 [KAEMPFERIDE] |  |  |  |  | 0.89 | 0.19 µM | 
8 | CC(C)=CCc1c(O)ccc2ccc(=O)oc12 [OSTHENOL] | 9.9% | 84.7% | > 60 µM | 25.3 µM | > 81.1 | 0.74 µM | activity at 1.5 µM [12]: 23.7%; activity at 1.5 µM [13]: 90.7%; Ki [8]: 0.26 µM
9 | O=c1ccc2cc3ccoc3cc2o1 [PSORALEN] | 71% | 78.3% | > 60 µM | 29.5 µM |  | > 20 µM | 
10 | COc1cc(O)c2c(=O)c(O)c(-c3ccc(O)cc3)oc2c1 [RHAMNOCITRIN] |  |  |  |  |  |  | IC50 [14]: 0.051 µM; Ratio IC50 (Homo sapiens [15]): 58.2
11 | COc1cc2ccc(=O)oc2cc1O [SCOPOLETIN] | 97% | 97.7% | > 60 µM | 35.8 µM |  | > 20 µM | 
12 | Cc1cccc(N2CC(CO)OC2=O)c1 (stereo not drawn) [TOLOXATONE] |  |  |  |  |  |  | activity at 2 µM [16]: 28.4%; activity at 2 µM [17]: 88.6%
